The record followed here is US10004732B2 (Novartis AG, priority 2014, dated 2018).

Counter-ions that a name gives are not always drawn.

One series concerns the target PI 4-kinase beta (Homo sapiens, UniProt Q9UBF8). Nature of the series: Kinase Glo Luminescent Kinase Assay (Kglo), assay D. It is filed as biochemical. The note with it: read-out: Assay D PI4Kβ IC50.
The target of series [1] is T1, PI 3-kinase alpha (Homo sapiens, UniProt P42336). The experiment in a line: Kinase Glo Luminescent Kinase Assay (Kglo), assay A. Conditions: read-out: Assay A PI3Kα IC50. Type of series: biochemical.
Target sequence in this assay (P42336 whole entry): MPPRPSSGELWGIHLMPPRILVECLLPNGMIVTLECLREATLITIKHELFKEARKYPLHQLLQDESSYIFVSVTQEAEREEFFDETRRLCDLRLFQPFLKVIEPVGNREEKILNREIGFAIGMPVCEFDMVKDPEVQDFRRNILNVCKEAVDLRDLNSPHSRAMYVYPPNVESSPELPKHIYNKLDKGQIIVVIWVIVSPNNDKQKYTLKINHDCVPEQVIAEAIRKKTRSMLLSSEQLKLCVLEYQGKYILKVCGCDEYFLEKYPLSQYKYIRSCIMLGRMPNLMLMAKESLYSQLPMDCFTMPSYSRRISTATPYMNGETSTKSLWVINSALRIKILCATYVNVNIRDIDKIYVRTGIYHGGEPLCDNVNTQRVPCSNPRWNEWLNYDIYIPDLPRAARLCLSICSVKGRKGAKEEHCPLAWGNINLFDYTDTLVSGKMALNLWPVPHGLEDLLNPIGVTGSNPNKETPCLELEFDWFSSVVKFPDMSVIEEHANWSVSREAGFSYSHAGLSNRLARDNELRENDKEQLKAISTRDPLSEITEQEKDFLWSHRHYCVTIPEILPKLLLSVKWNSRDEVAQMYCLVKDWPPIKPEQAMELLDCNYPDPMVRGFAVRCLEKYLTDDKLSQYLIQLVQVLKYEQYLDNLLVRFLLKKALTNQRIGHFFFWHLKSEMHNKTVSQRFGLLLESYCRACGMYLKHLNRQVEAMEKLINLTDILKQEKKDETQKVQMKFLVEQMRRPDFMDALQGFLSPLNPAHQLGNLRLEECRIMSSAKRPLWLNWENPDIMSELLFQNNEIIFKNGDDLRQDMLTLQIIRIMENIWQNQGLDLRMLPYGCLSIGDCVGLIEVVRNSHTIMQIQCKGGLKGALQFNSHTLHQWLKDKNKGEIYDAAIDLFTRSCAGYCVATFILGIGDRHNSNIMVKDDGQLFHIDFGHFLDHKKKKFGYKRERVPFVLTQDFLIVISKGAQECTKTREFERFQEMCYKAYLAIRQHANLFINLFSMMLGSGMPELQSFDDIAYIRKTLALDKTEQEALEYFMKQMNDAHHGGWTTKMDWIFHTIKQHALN
The next series concerns the target Vps34 (Homo sapiens, UniProt Q8NEB9). The experiment in a line: Kinase Glo Luminescent Kinase Assay (Kglo), assay C. The note with it: read-out: Assay C VPS34 IC50. It is filed as biochemical.
Series [2] addresses T2, PI 3-kinase delta (Homo sapiens, UniProt O00329). Nature of the series: Cellular assay J1, p-Akt (S473) in Rat-1 cells, Surefire format. It is filed as cell-based. The note with it: non-asterisked data: version J1 (Surefire format), Rat-1 cells; read-out: Assay J PI3Kδ IC50.
The target in series [3] is T3, PI 3-kinase gamma (Homo sapiens, UniProt P48736). The experiment in a line: Cellular U937 AKT assay K1 (MSD). It is filed as cell-based. Conditions: U937 cells, K1 format; read-out: Assay K1 PI3Kγ IC50.
The target of series [4] is T2, PI 3-kinase delta. The experiment in a line: TR-FRET Adapta assay, assay F.
For series [5], the system named is IL-8-induced neutrophil shape change in human whole blood. The experiment in a line: Whole blood neutrophil shape change assay (L). It is filed as cell-based. The note with it: Homo sapiens, Neutrophil, IL-8, human whole blood, read-out: Assay L WBSC IC50.
For series [6], the target named is T1, PI 3-kinase alpha. The experiment in a line: Cellular assay H1, p-Akt (S473) in Rat-1 cells, Surefire format. It is filed as cell-based. The note with it: non-asterisked data: version H1 (Surefire format), Rat-1 cells; read-out: Assay H PI3Kα IC50.
Target sequence in this assay (P42336 whole entry): as above
Target sequence in this assay (Q63787 whole entry partner): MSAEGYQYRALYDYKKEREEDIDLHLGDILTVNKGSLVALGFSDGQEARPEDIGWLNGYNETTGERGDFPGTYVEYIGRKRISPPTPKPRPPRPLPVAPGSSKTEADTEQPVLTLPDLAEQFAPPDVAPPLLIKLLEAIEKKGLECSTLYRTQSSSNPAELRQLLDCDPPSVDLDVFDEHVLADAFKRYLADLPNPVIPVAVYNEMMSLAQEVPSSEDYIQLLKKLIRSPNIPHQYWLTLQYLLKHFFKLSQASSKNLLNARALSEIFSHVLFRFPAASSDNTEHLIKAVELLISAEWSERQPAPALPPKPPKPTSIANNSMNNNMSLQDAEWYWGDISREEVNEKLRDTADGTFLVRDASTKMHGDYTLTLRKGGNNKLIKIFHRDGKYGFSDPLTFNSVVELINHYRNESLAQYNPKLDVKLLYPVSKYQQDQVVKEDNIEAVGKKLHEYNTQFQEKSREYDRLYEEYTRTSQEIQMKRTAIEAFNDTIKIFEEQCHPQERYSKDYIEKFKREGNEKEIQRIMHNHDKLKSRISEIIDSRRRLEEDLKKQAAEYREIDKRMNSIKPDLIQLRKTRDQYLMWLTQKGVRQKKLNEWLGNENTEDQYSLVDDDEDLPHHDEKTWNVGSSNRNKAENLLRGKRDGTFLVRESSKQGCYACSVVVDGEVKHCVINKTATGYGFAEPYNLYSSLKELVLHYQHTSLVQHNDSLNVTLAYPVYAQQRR
The target in the next series is mTOR (Homo sapiens, UniProt P42345). Nature of the series: Lanthascreen kinase binding assay, assay G. Conditions: read-out: Assay G mTOR IC50.
Series [7] deals with T3, PI 3-kinase gamma. The experiment in a line: Cellular U937 AKT assay K2 (HTRF). It is filed as cell-based. Conditions: U937 cells, K2 format; read-out: Assay K2 PI3Kγ IC50.
Method: In assays K1 and K2, the compounds were tested for their ability to inhibit the production of phosphorylated AKT (Protein Kinase B) generated in a PI 3-kinase gamma isoform-dependent process in a U937 human cell line.
Cellular U937 AKT Assay for PI 3-Kinase Gamma (K2)
U937 cells are split every 3-4 days: 5×10^6 cells/flask (175 cm^2) in 40 ml.
Semi-automated preparation of cell lysates: Cells were resuspended in HBSS, seeded (200′000 cells/well/60 μl) into a 384-well plate and incubated in a humidified 37° C., 5% CO2 incubator for 1.5 hours. The compounds were diluted with HBSS and 40 μl were added to the starved cells (except for wells 24 I-P). […] The cells were then incubated for 30 minutes at 37° C. and 5% CO2. Stimulation occurred during 3 minutes by addition of 20 μl MIP1α (final 10 ng/ml, diluted in HBSS) in the incubator. Wells 24 A-H were only stimulated with HBSS.
The stimulation was then stopped by putting the cell plates on ice (filled with cold water). The cells were then centrifuged at 1200 rpm and 4° C. for 3 minutes.
80 μl of supernatant was removed. The cells were again centrifuged at 1200 rpm and 4° C. for 3 minutes. The supernatant was then removed by turning plates upside down and 30 μl of lysis buffer were added. The plate was incubated at room temperature for 30 minutes under shaking. 16 μl were then transferred to a ProxiPlate Plus 384-well. 4 μl of the master mix (each conjugate diluted 1:20 with detection reagent) were added to each well and the plate was kept in the dark at room temperature for 4 hours.
Series [8] deals with T4, PI 3-kinase beta (Homo sapiens, UniProt P42338). Nature of the series: Cellular assay I1, p-Akt (S473) in Rat-1 cells, Surefire format. It is filed as cell-based. The note with it: non-asterisked data: version I1 (Surefire format), Rat-1 cells; read-out: Assay I PI3Kβ IC50.
Target sequence in this assay (P42338 whole entry): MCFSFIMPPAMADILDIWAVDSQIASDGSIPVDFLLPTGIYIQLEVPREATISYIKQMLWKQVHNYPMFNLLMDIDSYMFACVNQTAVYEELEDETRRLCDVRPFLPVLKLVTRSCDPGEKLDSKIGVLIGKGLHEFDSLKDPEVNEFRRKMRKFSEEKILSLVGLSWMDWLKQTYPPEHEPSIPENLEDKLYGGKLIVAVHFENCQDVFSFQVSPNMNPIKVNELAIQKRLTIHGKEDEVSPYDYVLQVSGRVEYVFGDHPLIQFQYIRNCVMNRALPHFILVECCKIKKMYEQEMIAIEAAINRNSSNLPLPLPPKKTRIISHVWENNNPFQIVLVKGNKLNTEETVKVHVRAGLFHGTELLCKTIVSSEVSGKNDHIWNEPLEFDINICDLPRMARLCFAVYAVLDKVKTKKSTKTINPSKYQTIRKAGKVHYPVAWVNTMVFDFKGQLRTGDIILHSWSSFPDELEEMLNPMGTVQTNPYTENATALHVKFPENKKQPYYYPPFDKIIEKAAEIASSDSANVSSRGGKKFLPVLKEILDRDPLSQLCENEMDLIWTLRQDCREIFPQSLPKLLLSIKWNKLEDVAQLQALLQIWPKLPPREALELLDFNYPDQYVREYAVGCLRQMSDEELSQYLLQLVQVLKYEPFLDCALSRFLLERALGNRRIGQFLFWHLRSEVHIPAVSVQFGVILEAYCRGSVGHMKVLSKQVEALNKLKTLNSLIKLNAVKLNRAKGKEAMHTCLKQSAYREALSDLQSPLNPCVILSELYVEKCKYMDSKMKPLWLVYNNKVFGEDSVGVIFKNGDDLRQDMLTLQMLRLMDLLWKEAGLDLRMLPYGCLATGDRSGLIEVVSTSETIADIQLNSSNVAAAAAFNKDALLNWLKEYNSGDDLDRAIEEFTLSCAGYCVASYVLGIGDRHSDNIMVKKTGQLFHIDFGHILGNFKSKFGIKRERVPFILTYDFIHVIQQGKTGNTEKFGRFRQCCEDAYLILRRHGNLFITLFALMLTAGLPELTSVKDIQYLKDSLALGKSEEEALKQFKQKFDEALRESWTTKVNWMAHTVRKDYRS
Target sequence in this assay (Q63787 whole entry partner): as the sequence (Q63787 whole entry partner) above
The target in series [9] is T4, PI 3-kinase beta. The experiment in a line: Kinase Glo Luminescent Kinase Assay (Kglo), assay B. It is filed as biochemical. The note with it: read-out: Assay B PI3Kβ IC50.
Target sequence in this assay (P42338 whole entry): as the sequence (P42338 whole entry) above
Target sequence in this assay (P27986 461-568 partner): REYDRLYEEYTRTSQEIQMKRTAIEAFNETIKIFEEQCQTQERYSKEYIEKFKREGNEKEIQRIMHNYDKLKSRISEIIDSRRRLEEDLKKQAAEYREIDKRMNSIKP
Series [10] has as its target T3, PI 3-kinase gamma. The experiment in a line: TR-FRET Adapta assay, assay E. Type of series: biochemical. The note with it: read-out: Assay E PI3Kγ IC50.
The nature of series [11]: Microsomal clearance assay (M). The note with it: intrinsic clearance in rat liver microsomes.
Method: The experiments were performed in 96-well glass plates at 37° C. on an automated Tecan EVO platform. Test compounds at a concentration of 10 mM in pure DMSO were diluted 1:1000 in water to 10 μM. […] Reactions were initiated by the addition of 150 μL of a cofactor solution containing 2 mM NADPH.

T3 sequence (P48736 whole entry): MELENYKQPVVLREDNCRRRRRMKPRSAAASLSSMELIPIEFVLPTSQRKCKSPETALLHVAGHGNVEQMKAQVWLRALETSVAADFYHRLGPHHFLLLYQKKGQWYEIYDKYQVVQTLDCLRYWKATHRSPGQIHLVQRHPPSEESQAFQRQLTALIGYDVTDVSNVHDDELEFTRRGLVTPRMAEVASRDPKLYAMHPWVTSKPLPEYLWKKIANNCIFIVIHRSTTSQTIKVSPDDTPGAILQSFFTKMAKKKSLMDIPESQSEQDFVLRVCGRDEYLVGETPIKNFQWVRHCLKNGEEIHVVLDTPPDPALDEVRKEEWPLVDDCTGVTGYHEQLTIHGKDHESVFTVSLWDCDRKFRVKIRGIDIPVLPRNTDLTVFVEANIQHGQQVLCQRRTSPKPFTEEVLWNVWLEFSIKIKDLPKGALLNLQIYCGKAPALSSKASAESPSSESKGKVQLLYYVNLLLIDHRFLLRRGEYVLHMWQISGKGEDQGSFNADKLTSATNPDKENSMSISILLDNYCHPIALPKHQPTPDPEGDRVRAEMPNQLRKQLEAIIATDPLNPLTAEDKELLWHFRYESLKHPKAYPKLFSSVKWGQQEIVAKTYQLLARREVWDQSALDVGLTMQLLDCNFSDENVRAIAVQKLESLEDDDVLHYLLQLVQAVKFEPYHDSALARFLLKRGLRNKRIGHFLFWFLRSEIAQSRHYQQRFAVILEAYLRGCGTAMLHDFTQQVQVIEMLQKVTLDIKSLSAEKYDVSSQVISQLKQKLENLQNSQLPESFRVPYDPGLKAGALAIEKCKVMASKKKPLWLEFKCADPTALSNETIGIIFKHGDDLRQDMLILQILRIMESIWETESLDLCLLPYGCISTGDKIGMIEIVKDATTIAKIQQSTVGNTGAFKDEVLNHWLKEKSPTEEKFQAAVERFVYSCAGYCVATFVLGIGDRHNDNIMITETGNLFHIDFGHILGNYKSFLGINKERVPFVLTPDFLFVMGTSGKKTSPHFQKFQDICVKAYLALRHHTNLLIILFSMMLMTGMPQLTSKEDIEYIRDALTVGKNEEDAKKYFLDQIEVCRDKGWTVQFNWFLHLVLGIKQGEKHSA
Vps34, sequence (Q8NEB9 whole entry, species assumed): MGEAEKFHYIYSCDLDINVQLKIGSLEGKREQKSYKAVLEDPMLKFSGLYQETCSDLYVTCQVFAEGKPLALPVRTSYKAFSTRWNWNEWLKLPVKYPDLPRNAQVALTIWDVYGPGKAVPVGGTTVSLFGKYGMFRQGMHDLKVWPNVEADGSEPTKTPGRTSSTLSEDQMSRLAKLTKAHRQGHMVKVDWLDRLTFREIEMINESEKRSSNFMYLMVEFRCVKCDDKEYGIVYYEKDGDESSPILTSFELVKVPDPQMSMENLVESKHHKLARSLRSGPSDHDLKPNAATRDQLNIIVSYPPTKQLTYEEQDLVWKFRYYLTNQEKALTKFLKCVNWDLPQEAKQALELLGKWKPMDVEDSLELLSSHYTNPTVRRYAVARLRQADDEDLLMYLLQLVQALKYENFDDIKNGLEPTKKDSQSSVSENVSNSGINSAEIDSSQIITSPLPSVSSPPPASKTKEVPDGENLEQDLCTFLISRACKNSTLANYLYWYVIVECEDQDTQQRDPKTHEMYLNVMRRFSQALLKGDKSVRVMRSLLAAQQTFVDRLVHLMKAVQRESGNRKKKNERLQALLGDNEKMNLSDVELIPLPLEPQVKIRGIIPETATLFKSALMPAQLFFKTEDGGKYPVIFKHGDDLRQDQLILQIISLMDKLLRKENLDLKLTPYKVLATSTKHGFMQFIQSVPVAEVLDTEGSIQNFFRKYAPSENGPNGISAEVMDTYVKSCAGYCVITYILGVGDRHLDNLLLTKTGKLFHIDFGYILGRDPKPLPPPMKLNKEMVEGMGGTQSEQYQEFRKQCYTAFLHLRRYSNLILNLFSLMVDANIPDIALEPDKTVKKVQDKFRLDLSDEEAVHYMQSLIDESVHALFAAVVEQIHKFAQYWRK
Method for mTOR: Lanthascreen™ Kinase Binding Assay for mTOR (G)
Binding of an inhibitor to the kinase competes for binding with the tracer, resulting in a loss of FRET.
50 nL of compound dilutions were dispensed onto white 384-well small volume polystyrene plate.

On to `Cc1ccc(S(=O)(=O)NOC(C)(C)C)cc1-c1cnc(N)c(-n2cncn2)n1` [Example 112.1, 3-(5-Amino-6-(1H-1,2,4-triazol-1-yl)pyrazin-2-yl)-N-(tert-butoxy)-4-methylbenzenesulfonamide], for which the IC50 at PI 4-kinase beta was 1800 nM; at PI 3-kinase alpha [1], 290 nM; at Vps34, over 10000 nM; on PI 3-kinase delta [2], 380 nM; at PI 3-kinase gamma [3], 91 nM; on PI 3-kinase delta [4] (read-out: Assay F PI3Kδ IC50), 210 nM. Further, the IC50 was determined as 1330 nM in [5]; 800 nM on PI 3-kinase alpha [6]; 6000 nM at mTOR; 63 nM at PI 3-kinase gamma [7]; 1470 nM on PI 3-kinase beta [8]; 1700 nM on PI 3-kinase beta [9]. Moreover, the IC50 on PI 3-kinase gamma [10] was 33 nM.
Consider `Cc1ncc(-c2nc(-c3cc(S(=O)(=O)NCC4(CO)COC4)ccc3C)cnc2N)s1` [Example 44, 3-(5-Amino-6-(2-methylthiazol-5-yl)pyrazin-2-yl)-N-((3-(hydroxymethyl)oxetan-3-yl)methyl)-4-methylbenzenesulfonamide], for which the IC50 on PI 4-kinase beta is 1600 nM; on PI 3-kinase alpha [1], 60 nM; at Vps34, 2300 nM; on PI 3-kinase delta [2], over 10000 nM; at PI 3-kinase gamma [3], 22 nM; at PI 3-kinase delta [4] (read-out: Assay F PI3Kδ IC50), 150 nM. For the same compound, the IC50 in series [5] was 413 nM; at PI 3-kinase alpha [6], 7040 nM; at PI 3-kinase gamma [7], 59 nM; at PI 3-kinase beta [8], over 10000 nM; at PI 3-kinase beta [9], 240 nM; at PI 3-kinase gamma [10], 5 nM. Further, in series [11], the “Assay M RLM CI(int)” value was 37 µL/min/mg.
On to `Cc1ncc(-c2nc(-c3cc(S(=O)(=O)NC[C@H]4C[C@H](O)C4)ccc3C)cnc2N)s1` [Example 20b, trans-3-[5-Amino-6-(2-methyl-thiazol-5-yl)-pyrazin-2-yl]-N-(3-hydroxy-cyclobutylmethyl)-4-methyl-benzenesulfonamide], for which the IC50 on PI 4-kinase beta came to 4980 nM; at PI 3-kinase alpha [1], 50 nM; on Vps34, 400 nM; on PI 3-kinase delta [2], 610 nM; on PI 3-kinase gamma [3], 14 nM; on PI 3-kinase delta [4], 50 nM. For the same compound, the IC50 in series [5] was found to be 106 nM; at PI 3-kinase alpha [6], 660 nM; at mTOR it was 3310 nM; on PI 3-kinase gamma [7], 24 nM; at PI 3-kinase beta [8], 1730 nM; at PI 3-kinase beta [9] it was 880 nM. Further, the IC50 at PI 3-kinase gamma [10] turned out to be 11 nM. Moreover, the “Assay M RLM CI(int)” value in series [11] was found to be 30 µL/min/mg.
With `Cc1ncn(-c2nc(-c3cc(S(=O)(=O)NCC(C)(C)O)ccc3C)cnc2N)n1` [Example 25, 3-[5-Amino-6-(3-methyl-[1,2,4]triazol-1-yl)-pyrazin-2-yl]-N-(2-hydroxy-2-methyl-propyl)-4-methyl-benzenesulfonamide], the IC50 at PI 4-kinase beta is over 10000 nM; on PI 3-kinase alpha [1] it was 620 nM; at Vps34 it was over 10000 nM; at PI 3-kinase delta [2], 1390 nM; on PI 3-kinase gamma [3], 153 nM; at PI 3-kinase delta [4] (read-out: Assay F PI3Kδ IC50), 1030 nM. For the same compound, the IC50 in [5] came to 742 nM; at PI 3-kinase alpha [6] it was 2190 nM; at mTOR, 210 nM; at PI 3-kinase gamma [7], 2340 nM; on PI 3-kinase beta [8], 1700 nM; at PI 3-kinase beta [9] it was 3150 nM. Also, on PI 3-kinase gamma [10], the IC50 stood at 79 nM. Also, the “Assay M RLM CI(int)” value in series [11] came to 71 µL/min/mg.
`Cc1ncc(-c2nc(-c3cc(S(=O)(=O)NC[C@H]4C[C@@H](O)C4)ccc3C)cnc2N)s1` [Example 20a, cis-3-[5-Amino-6-(2-methyl-thiazol-5-yl)-pyrazin-2-yl]-N-(3-hydroxy-cyclobutylmethyl)-4-methyl-benzenesulfonamide]: the IC50 was 5280 nM at PI 4-kinase beta; 30 nM on PI 3-kinase alpha [1]; over 9100 nM on Vps34; 420 nM at PI 3-kinase delta [2]; 11 nM on PI 3-kinase gamma [3]; 50 nM at PI 3-kinase delta [4]. Further, the IC50 in series [5] amounted to 232 nM; on PI 3-kinase alpha [6] it was 720 nM; on mTOR, 1880 nM; at PI 3-kinase gamma [7] it was 23 nM; at PI 3-kinase beta [8], 1430 nM; on PI 3-kinase beta [9], 1060 nM. At PI 3-kinase gamma [10], the IC50 came to 7 nM. Moreover, the “Assay M RLM CI(int)” value in [11] was 55 µL/min/mg.
`Cc1ccc(S(=O)(=O)NCCC(C)(C)O)cc1-c1cnc(N)c(-c2cscn2)n1` [Example 108, 3-(5-Amino-6-(thiazol-4-yl)pyrazin-2-yl)-N-(3-hydroxy-3-methylbutyl)-4-methylbenzenesulfonamide]: the IC50 came to 640 nM on PI 4-kinase beta; 310 nM at PI 3-kinase alpha [1]; 410 nM at PI 3-kinase delta [2]; 58 nM at PI 3-kinase gamma [3]; 330 nM on PI 3-kinase delta [4] (read-out: Assay F PI3Kδ IC50); 5560 nM in [5]. In addition, the IC50 on PI 3-kinase alpha [6] was 5780 nM; at mTOR, over 10000 nM; at PI 3-kinase gamma [7], 163 nM; at PI 3-kinase beta [8] it was 3010 nM; on PI 3-kinase beta [9] it was 260 nM; on PI 3-kinase gamma [10] it was 38 nM. In addition, in series [11], the “Assay M RLM CI(int)” value was determined as 112 µL/min/mg.
Regarding `Cc1ccc(S(=O)(=O)NCC(C)(C)O)cc1-c1cnc(N)c(-n2cnc(CN(C)C)n2)n1` [Example 117, 3-(5-Amino-6-(3-((dimethylamino)methyl)-1H-1,2,4-triazol-1-yl)pyrazin-2-yl)-N-(2-hydroxy-2-methylpropyl)-4-methylbenzenesulfonamide hydrochloride salt], the IC50 is over 10000 nM on PI 4-kinase beta; 900 nM at PI 3-kinase alpha [1]; over 10000 nM on Vps34; over 10000 nM at PI 3-kinase delta [2]; 577 nM at PI 3-kinase gamma [3]; 727 nM in series [5]. The IC50 was over 10000 nM on PI 3-kinase alpha [6]; over 10000 nM on mTOR; 945 nM on PI 3-kinase gamma [7]; over 3000 nM on PI 3-kinase beta [8]; over 10000 nM on PI 3-kinase beta [9]; 36 nM at PI 3-kinase gamma [10]. Also, the “Assay M RLM CI(int)” value in [11] stood at 85 µL/min/mg.
`Cc1ccc(S(=O)(=O)NCC2(CO)COC2)cc1-c1cnc(N)c(-c2cn(C)nc2C)n1` [Example 128, 3-(5-Amino-6-(1,3-dimethyl-1H-pyrazol-4-yl)pyrazin-2-yl)-N-((3-(hydroxymethyl)oxetan-3-yl)methyl)-4-methylbenzenesulfonamide]: the IC50 at PI 4-kinase beta was 6800 nM; on PI 3-kinase alpha [1] it was 150 nM; on Vps34, over 10000 nM; at PI 3-kinase delta [2], over 10000 nM; on PI 3-kinase gamma [3], 209 nM; at PI 3-kinase delta [4] (read-out: Assay F PI3Kδ IC50), 100 nM. The IC50 in series [5] is 2990 nM; at PI 3-kinase alpha [6] it was over 10000 nM; on PI 3-kinase gamma [7], 201 nM; on PI 3-kinase beta [8], 9910 nM; at PI 3-kinase beta [9], 500 nM; at PI 3-kinase gamma [10], 14 nM. Also, in series [11], the “Assay M RLM CI(int)” value is 22 µL/min/mg.
Regarding `Cc1ccc(S(=O)(=O)NC[C@H]2COCCN2)cc1-c1cnc(N)c(-c2cn(C)nc2C)n1` [Example 128.7, (S)-3-(5-Amino-6-(1,3-dimethyl-1H-pyrazol-4-yl)pyrazin-2-yl)-4-methyl-N-(morpholin-3-ylmethyl)benzenesulfonamide], the IC50 at PI 4-kinase beta was over 10000 nM; at PI 3-kinase alpha [1] it was 220 nM; at Vps34, over 10000 nM; on PI 3-kinase delta [2], over 10000 nM; at PI 3-kinase gamma [3] it was 249 nM; at PI 3-kinase delta [4] (read-out: Assay F PI3Kδ IC50), 690 nM. Also, the IC50 is 826 nM in [5]; over 10000 nM on PI 3-kinase alpha [6]; 117 nM at PI 3-kinase gamma [7]; over 10000 nM on PI 3-kinase beta [8]; 1900 nM on PI 3-kinase beta [9]; 79 nM at PI 3-kinase gamma [10]. Also, the “Assay M RLM CI(int)” value in series [11] is 20 µL/min/mg.
Consider `Cc1ccc(S(=O)(=O)NCC2CNCCO2)cc1-c1cnc(N)c(-c2cn(C)nc2C)n1` (stereo not shown) [Example 128.8, 3-(5-amino-6-(1,3-dimethyl-1H-pyrazol-4-yl)pyrazin-2-yl)-4-methyl-N-(morpholin-2-ylmethyl)benzenesulfonamide], for which the IC50 on PI 4-kinase beta is over 10000 nM; on PI 3-kinase alpha [1], 590 nM; at Vps34, over 10000 nM; at PI 3-kinase delta [2], over 10000 nM; at PI 3-kinase gamma [3], 751 nM; at PI 3-kinase delta [4] (read-out: Assay F PI3Kδ IC50) it was 100 nM. For the same compound, the IC50 is 1670 nM in [5]; over 3000 nM on PI 3-kinase alpha [6]; 421 nM on PI 3-kinase gamma [7]; over 10000 nM on PI 3-kinase beta [8]; 1800 nM at PI 3-kinase beta [9]; 21 nM on PI 3-kinase gamma [10]. For the same compound, in series [11], the “Assay M RLM CI(int)” value was under 3.4 µL/min/mg.
